Experimental data reported in US6831075B2, “Heterocyclic substituted pyrazolones” (Cephalon, Inc., priority 1999, dated 2004).

Molecular target: T1, baculoviral GST-MLK1KD (Homo sapiens, UniProt P80192)
T1 construct: 1 μg/ml of baculoviral GST-MLK1KD; GST (N); host or cells: baculovirus expression system
Test: Mixed Lineage Kinase-1 inhibition assay (Millipore Multiscreen TCA in-plate, 32P)
Type: biochemical
Details: 1 uM compound; 60 μM ATP
Experimental: Inhibition of Mixed Lineage Kinase-1 Activity
The kinase activity of MLK1 was assessed using the Millipore Multiscreen TCA “in-plate” format as described for protein kinase C (Pitt & Lee, J. Biomol. Screening, 1: 47-51, 1996). Briefly, each 50-μl assay mixture contained 20 mM Hepes, pH 7.0, 1 mM EGTA, 10 mM MgCl2, 1 mM DTT, 25 mM β-glycerophosphate, 60 μM ATP, 0.25 μCi [γ-^32P]ATP, 0.1% BSA, 500 μg/ml myelin basic protein (UBI #13-104), 2% DMSO, 1 μM of test compound, and 1 μg/ml of baculoviral GST-MLK1KD. Samples were incubated for 15 min at 37° C. The reaction was stopped by adding ice cold 50% TCA and the protein were allowed to precipitate for 30 min at 4° C. The plates were then washed with ice cold 25% TCA. Supermix scintillation cocktail was added, and the plates were allowed to equilibrate for 1-2 hours prior to counting using the Wallac MicroBeta 1450 PLUS scintillation counter.

T1 sequence (P80192 144-412 limits assumed): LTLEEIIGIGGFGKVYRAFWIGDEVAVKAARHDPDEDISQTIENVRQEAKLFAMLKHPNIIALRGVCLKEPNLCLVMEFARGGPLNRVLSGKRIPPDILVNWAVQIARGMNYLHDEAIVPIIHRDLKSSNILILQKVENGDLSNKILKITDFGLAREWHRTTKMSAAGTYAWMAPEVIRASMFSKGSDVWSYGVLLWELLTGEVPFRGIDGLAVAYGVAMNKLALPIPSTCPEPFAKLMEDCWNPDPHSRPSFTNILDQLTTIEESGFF

SMILES	MLK-1 Kinase % inhibition @ 1 uM
Cc1cc(C)c(C=C2C(=O)NN=C2c2cccnc2)[nH]1 [Compound 10]	22%
COC(=O)c1ccc2c(C=C3C(=O)NN=C3c3ccco3)c[nH]c2c1 [Compound 50]	11%
Cc1cc(C)c(C=C2C(=O)NN=C2c2cc(C)oc2C)[nH]1 [Compound 36]	−9%
Cn1cc(C=C2C(=O)NN=C2c2ccco2)c2ccccc21 [Compound 45]	24%
Cc1cc(C)c(C=C2C(=O)NN=C2c2ccncc2)[nH]1 [Compound 3]	2%
Cc1cc(C)c(C=C2C(=O)NN=C2c2ccn(C)c2)[nH]1 [Compound 23]	30%
Cc1cc(C)c(C=C2C(=O)NN=C2c2ccoc2)[nH]1 [Compound 1]	12%
CN(C)c1ccc(C=C2C(=O)NN=C2c2ccco2)cc1 [Compound 52]	5%
N#CCCn1cc(C=C2C(=O)NN=C2c2nccs2)c2ccccc21 [Compound 64]	10%
CCOC(=O)CCc1c(C(=O)OCC)[nH]c(C=C2C(=O)NN=C2c2ccoc2)c1CC(=O)OCC [Compound 7]	9%
Cc1cc(C)c(C=C2C(=O)NN=C2c2cccn2C)[nH]1 [Compound 55]	−5%
Cn1ccc(C2=NNC(=O)C2=Cc2c[nH]c3ccc(F)cc23)c1 [Compound 32]	5%
Cn1ccc(C2=NNC(=O)C2=Cc2c[nH]c3ccc(Cl)cc23)c1 [Compound 35]	7%
Cn1ccc(C2=NNC(=O)C2=Cc2c[nH]c3ccccc23)c1 [Compound 24]	10%
Cc1c(I)[nH]c(C=C2C(=O)NN=C2c2ccoc2)c1I [Compound 6]	25%

Molecular target: T2, recombinant human baculovirus-expressed FGFR1 cytoplasmic domain (Homo sapiens, UniProt P11362)
T2 construct: recombinant human baculovirus-expressed FGFR1 cytoplasmic domain; host or cells: baculovirus expression system
Test: FGFR1 kinase inhibition assay (ELISA-based, time-resolved fluorescence)
Type: biochemical
Details: 1 uM compound; 20 μM ATP
Experimental: Inhibition of Fibroblast Growth Factor Receptor-1 (FGFR1) Kinase Activity
The FGFR1 kinase activity was measured using an ELISA-based format in a 96-well FluoroNUNC Maxisorp plate with a time-resolved fluorescence readout as described for trkA kinase. The plate was coated with 100 μl/well of substrate solution (recombinant human PLC-γ/GST) at a concentration of 10 μg/ml in Tris buffered saline (TBS). The FDGFR1 activity was assayed in 100-μl assay micture containing 50 mM HEPES (pH 7.4), 20 μM ATP, 10 mM MnCl2, 0.1% BSA, 2% DMSO, and 15 ng/ml recombinant human baculovirus-expressed FGFR1 cytoplasmic domain (prephosphorylated prior to use). Compounds were screened for inhibition of the FGFR1 kinase activity at a conentration of 1 μM. The kinase reaction was allowed to proceed at 37° C. for 15 minutes. The detection antibody, europium-labeled anti-phosphotyrosine antibody (Wallace #CR04-100), was added at 1:5000 dilution in block buffer (3% BSA in TBST). After a 1-hour incubation at 37° C., 100 μl of enhancement solution (Wallac #1244-105) and the plate was gently agitated. After 5 min, the fluorescence of the resulting solutions measured using the BMG Fluostar (Model # 403).

T2 sequence (P11362 398-822 limits assumed): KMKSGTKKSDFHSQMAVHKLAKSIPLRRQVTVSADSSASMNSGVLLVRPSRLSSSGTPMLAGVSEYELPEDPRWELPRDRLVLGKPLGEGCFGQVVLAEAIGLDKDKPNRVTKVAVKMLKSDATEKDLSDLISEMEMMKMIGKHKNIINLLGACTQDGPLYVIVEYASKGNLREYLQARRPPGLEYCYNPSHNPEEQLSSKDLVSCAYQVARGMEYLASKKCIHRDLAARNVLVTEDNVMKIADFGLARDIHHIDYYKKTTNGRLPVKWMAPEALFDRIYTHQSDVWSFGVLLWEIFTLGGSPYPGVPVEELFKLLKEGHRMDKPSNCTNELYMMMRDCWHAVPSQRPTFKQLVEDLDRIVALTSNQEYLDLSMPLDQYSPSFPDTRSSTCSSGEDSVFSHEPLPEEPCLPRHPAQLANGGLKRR

SMILES	FGFR1 % inhibition @ 1 uM
Cc1cc(C)c(C=C2C(=O)NN=C2c2cccnc2)[nH]1 [Compound 10]	14%
COC(=O)c1ccc2c(C=C3C(=O)NN=C3c3ccco3)c[nH]c2c1 [Compound 50]	20%
Cc1cc(C)c(C=C2C(=O)NN=C2c2cc(C)oc2C)[nH]1 [Compound 36]	31%
Cn1cc(C=C2C(=O)NN=C2c2ccco2)c2ccccc21 [Compound 45]	8%
Cc1cc(C)c(C=C2C(=O)NN=C2c2ccncc2)[nH]1 [Compound 3]	29%
Cc1cc(C)c(C=C2C(=O)NN=C2c2ccn(C)c2)[nH]1 [Compound 23]	31%
Cc1cc(C)c(C=C2C(=O)NN=C2c2ccoc2)[nH]1 [Compound 1]	6%
CN(C)c1ccc(C=C2C(=O)NN=C2c2ccco2)cc1 [Compound 52]	10%
N#CCCn1cc(C=C2C(=O)NN=C2c2nccs2)c2ccccc21 [Compound 64]	7%
CCOC(=O)CCc1c(C(=O)OCC)[nH]c(C=C2C(=O)NN=C2c2ccoc2)c1CC(=O)OCC [Compound 7]	28%
Cc1cc(C)c(C=C2C(=O)NN=C2c2cccn2C)[nH]1 [Compound 55]	36%
Cn1ccc(C2=NNC(=O)C2=Cc2c[nH]c3ccc(F)cc23)c1 [Compound 32]	4%
Cn1ccc(C2=NNC(=O)C2=Cc2c[nH]c3ccc(Cl)cc23)c1 [Compound 35]	29%
Cn1ccc(C2=NNC(=O)C2=Cc2c[nH]c3ccccc23)c1 [Compound 24]	39%
Cc1c(I)[nH]c(C=C2C(=O)NN=C2c2ccoc2)c1I [Compound 6]	20%

Molecular target: T3, baculoviral GST-MLK2KDLZ (Homo sapiens, UniProt Q02779)
T3 construct: 3 μg/ml of baculoviral GST-MLK2KDLZ; GST (N); host or cells: baculovirus expression system
Test: Mixed Lineage Kinase-2 inhibition assay (Millipore Multiscreen plate, 32P)
Type: biochemical
Details: 1 uM compound; 100 μM ATP
Experimental: Inhibition of Mixed Lineage Kinase-2 Activity
Assays were performed using the Millipore Multiscreen plate format as described for MLK1. Each 50-μl assay mixture contained 20 mM Hepes, pH 7, 1 mM EGTA, 10 mM MgCl2, 1 mM DTT, 25 mM β-glycerophosphate, 100 μM ATP, 0.25 μCi [γ-^32P]ATP, 0.1% BSA, 500 μg/ml myelin basic protein (UBI #13-104), 2% DMSO, various concentrations of test compound, and 3 μg/ml of baculoviral GST-MLK2KDLZ. Samples were incubated for 15 min. at 37° C. The reaction was stopped by adding ice cold 50% TCA and the proteins were allowed to precipitate for 30 min at 4° C. The plates were then washed with ice cold 25% TCA Supermix scintillation cocktail was added, and the plates were allowed to equilibrate for 1-2 hours prior to counting.

T3 sequence (Q02779 98-440 limits assumed): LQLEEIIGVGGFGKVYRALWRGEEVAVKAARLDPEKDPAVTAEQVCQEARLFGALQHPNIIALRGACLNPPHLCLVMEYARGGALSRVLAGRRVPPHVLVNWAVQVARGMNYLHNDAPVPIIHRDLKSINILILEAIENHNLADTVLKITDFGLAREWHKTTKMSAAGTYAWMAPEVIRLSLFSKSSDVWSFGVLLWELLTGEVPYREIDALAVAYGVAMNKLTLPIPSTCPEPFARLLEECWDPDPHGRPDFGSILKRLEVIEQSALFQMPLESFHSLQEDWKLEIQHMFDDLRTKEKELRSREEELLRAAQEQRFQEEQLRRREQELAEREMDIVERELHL

SMILES	MLK-2 Kinase % inhibition @ 1 uM
Cc1cc(C)c(C=C2C(=O)NN=C2c2cccnc2)[nH]1 [Compound 10]	−9%
COC(=O)c1ccc2c(C=C3C(=O)NN=C3c3ccco3)c[nH]c2c1 [Compound 50]	−1%
Cc1cc(C)c(C=C2C(=O)NN=C2c2cc(C)oc2C)[nH]1 [Compound 36]	−18%
Cn1cc(C=C2C(=O)NN=C2c2ccco2)c2ccccc21 [Compound 45]	−22%
Cc1cc(C)c(C=C2C(=O)NN=C2c2ccncc2)[nH]1 [Compound 3]	−1%
Cc1cc(C)c(C=C2C(=O)NN=C2c2ccn(C)c2)[nH]1 [Compound 23]	−6%
Cc1cc(C)c(C=C2C(=O)NN=C2c2ccoc2)[nH]1 [Compound 1]	7%
CN(C)c1ccc(C=C2C(=O)NN=C2c2ccco2)cc1 [Compound 52]	5%
N#CCCn1cc(C=C2C(=O)NN=C2c2nccs2)c2ccccc21 [Compound 64]	9%
CCOC(=O)CCc1c(C(=O)OCC)[nH]c(C=C2C(=O)NN=C2c2ccoc2)c1CC(=O)OCC [Compound 7]	−12%
Cc1cc(C)c(C=C2C(=O)NN=C2c2cccn2C)[nH]1 [Compound 55]	2%
Cn1ccc(C2=NNC(=O)C2=Cc2c[nH]c3ccc(F)cc23)c1 [Compound 32]	−14%
Cn1ccc(C2=NNC(=O)C2=Cc2c[nH]c3ccc(Cl)cc23)c1 [Compound 35]	−15%
Cn1ccc(C2=NNC(=O)C2=Cc2c[nH]c3ccccc23)c1 [Compound 24]	4%
Cc1c(I)[nH]c(C=C2C(=O)NN=C2c2ccoc2)c1I [Compound 6]	6%
